Common to all, as to format: cell-based
Series [1] relates to human immunodeficiency virus type 1 IIIB strain (HIV-1IIIB). Briefly: Cell protection assay against HIV infection (MT-4 cells, XTT). The settings on record: for CC50/EC50: MT-4 cells, HIV-1IIIB. The protocol: The protective effect of the test compound on MT-4 cells infected by human immunodeficiency virus type 1 IIIB strain (HIV-1IIIB) at different concentrations was evaluated.
The test compound was dissolved in DMSO at a concentration of 10 mM and stored at −20° C.
2) Test of the anti-HIV-1 IIIB infection activity of the compound: A starting concentration of 10 nM was used, and five serial five-fold dilutions were carried out on the compound. Each compound was present in the test medium at a concentration 2 folds of the final desired test concentration. 100 microliters (100 μL) of the solution of each concentration was added to triplicate wells for efficacy evaluation, and each concentration was added one well for colorimetric evaluation. AZT was purchased from Sigma Aldrich (St. Louis, MO, USA), and evaluated as a control compound in the antiviral assay.
(§1) Cell culture: MT-4 cells were passaged in a T-75 flask before use in the antiviral assay. On the day before the assay, cells were passaged in aliquots at a 1:2 ratio to ensure that they were in the exponential growth phase at the time of infection. Total cells and viable cells were quantified using a hemocytometer and trypan blue dye. The proportion of viable cells used for the assay was greater than 95%. The cells were resuspended in tissue culture medium at 5×10^4 cells per milliliter, and the resulting suspension was added to a drug-containing microtiter plate in a volume of 50 μL.
Virus preparation: The virus used for this assay was lymphotropic virus strain HIV-1IIIB. The viruses were amplified in CEM-SS cells for the preparation of virus stock solution. The pre-titered virus aliquot tube was taken from the refrigerator (−80° C.), and slowly thawed to room temperature in a biosafety cabinet. The viruses were diluted in the tissue culture medium. 50 μl of the diluted virus would produce 85% to 95% cell killing 6 days after infection. 50 μL of the diluted virus was added immediately to the microtiter plate containing cells and drugs.
(§2) Evaluation of the efficacy and toxicity of the compound with XTT: After culturing for six days in a 37° C., 5% CO2 incubator, tetrazolium dye XTT (2,3-bis(2-methoxy-4-nitro-5-sulfophenyl)-5-[(phenylamino)carbonyl]-2H-tetrazolium hydroxide) was added to the cell culture plate to conduct the test. The XTT solution was a 1 mg/ml RPMI1640 stock solution prepared on the same day. Phenazine methyl sulfate (PMS) solution at a concentration of 0.15 mg/ml was prepared in PBS, and stored in the dark at −20° C. XTT/PMS stock solution was prepared before use by adding 40 μl of PMS per milliliter of XTT solution. […] of XTT/PMS was added to each well of the plate, and the plate was re-incubated for 4 hours at 37° C. The plate was sealed with adhesive plate sealant, and gently shaked or inverted several times to mix the soluble formazan product. The absorbance was read at 450/650 nm.
Background: Formazan colour is commonly taken as a measure of viable cells.

In series [2] the test system is MT-4 cells. Nature of the series: Test of cytotoxicity of the compound (MT-4 cells, XTT). The settings on record: 6 days. The protocol: (§3) 1) Test of cytotoxicity of the compound: The test compound was evaluated using a starting concentration of 100 nM and five serial half-log dilutions. Each compound was present in the test medium at a concentration 2 folds of the final desired test concentration. The compound was diluted to 1 mM in DMSO. The compound was then diluted to 200 nM in a drug dilution tube containing 998 μL of test medium (adding 2 μL of 1 mM stock). […] of the 200 nM solution was transferred into 680 μL of the test medium (half-log dilution), and a total of five serial dilutions were carried out. 100 microliters (100 μL) of the solution of each concentration was added to duplicate wells for cytotoxicity evaluation, and each concentration was added to one well for colorimetric evaluation.
as §1, §2

Series [3] concerns HIV-1 subtype A RW/92/009. Briefly: Inhibitory activity against clinical HIV-1 strain RW/92/009 in PBMC. The settings on record: RW/92/009, human PBMC, 7 days, reverse transcriptase activity in supernatant. As for the experimental part:
(§4) Preparation of virus: Clinical HIV-1 virus strains (Table 3) were obtained from the US NIH AIDS Research and Reference Reagent Library. PBMC were extracted from three fresh blood samples that were HIV and HBV seronegative, mixed and cultured, and PHA-P (phytohemagglutinin) was added to stimulate activation. The cells and virus were incubated at 37° C./5% CO2, and the cell culture supernatant after infection was collected and stored frozen at −80° C. Each viral titer was titrated in pooled PBMCs from three donors.
(§5) Assay of antiviral activity of compounds: Frozen PBMCs were resuspended in fresh culture medium (1×10^6 cells/mL), and added to a round-bottom 96-well plate ([…]). 100 μl of culture medium containing 2 times the final concentration of the compound was added to each well, and then 50 μL of virus solution was added (the final infection dose was MOI=0.002). After 7 days of culture, the reverse transcriptase activity in the supernatant was determined to evaluate HIV-1 replication. At the same time, a 96-well culture plate with only compounds and cells was prepared for the assay of compound cytotoxicity.

The subject of series [4] is HIV-1 subtype C MW/93/959. Briefly: Inhibitory activity against clinical HIV-1 strain MW/93/959 in PBMC. To be noted: MW/93/959, human PBMC, 7 days, reverse transcriptase activity in supernatant. The protocol:
as §4, §5

Series [5] concerns HIV-1 subtype D UG/92/001. Briefly: Inhibitory activity against clinical HIV-1 strain UG/92/001 in PBMC. To be noted: UG/92/001, human PBMC, 7 days, reverse transcriptase activity in supernatant. As for the experimental part:
as §4, §5

Series [6] is described as follows: Test of cytotoxicity of the compound (MT-4 cells, XTT). To be noted: human. The protocol: as §3, §1, §2
Series [7] deals with WT (wild type) pseudovirus. Briefly: Pseudovirus-based assay of anti-HIV-1 activity, WT strain. To be noted: HEK-293T, 72 h. The protocol: (§6) The inhibitory activity against pseudoviruses containing common clinical mutation sites of HIV-1 integrase (G140S/Q148R, Q148R/N155H, E138K, Q148H, R263K and Y143R/Q148H) was determined.
(§7) Preparation of pseudovirus: Using the lentiviral plasmid pNL4-3-Luc-RE (HedgehogBio) as the backbone, an integrase point mutation plasmid was constructed. HEK293T cells (ATCC) were seeded in a 6-well plate at 5×10^5 cells per well. After 24 hours, when the cell density reached 60% to 80%, transfection was performed. pNL4-3-Luc-R-E- or pNL4-3-Luc-R-E--IN-mutant plasmid and lentivirus packaging plasmid pMD2.G (Beijing Zoman Bio) were added to the transfection reagent in a certain proportion. Cell transfection was performed according to the instructions of transfection reagent PEI25K (Maokang Biotechnology). After 48 hours, the supernatant was collected, centrifuged at 3000 rpm for 5 minutes, filtered with a 0.45 μm microporous membrane, aliquoted, and stored at −80° C. for later use. In HEK293T cells, the pseudovirus titer was determined based on luciferase activity.
(§8) Determination of antiviral activity of compounds: In a 96-well V-bottom plate, the compound to be tested was diluted with DMSO semi-logarithmically, and a compound solution 4 times the final concentration was prepared for later use. According to the results of different virus titrations, the virus was diluted with complete culture medium for later use. HEK293T cells were digested with trypsin to obtain a cell suspension of 2×10^5/mL. 50 µl of compound diluent, 50 µl of virus diluent and 100 µl of cell suspension were added successively to a 96-well flat-bottomed plate. The final concentration of the compound was 1000 nM to 0.1 nM. The 96-well plate was incubated in a 37° C., 5% CO2 incubator. After 72 hours, 100 µL of culture supernatant was pipetted out carefully from each well of the 96-well plate, 25 µL of Steady-Glo detection reagent (Promega, Cat #E2550) was added to each well in the dark, and then assayed on a machine (Tecan, Type #Spark).

The subject of series [8] is HIV-1 integrase E138K pseudovirus. Nature of the series: Pseudovirus-based assay of anti-HIV-1 activity, E138K strain. To be noted: HEK-293T, 72 h. As for the experimental part: as §6, §7, §8
In series [9] the test system is HIV-1 integrase Q148H pseudovirus. Nature of the series: Pseudovirus-based assay of anti-HIV-1 activity, Q148H strain. To be noted: HEK-293T, 72 h. The protocol:
as §6, §7, §8

Series [10] relates to HIV-1 integrase R263K pseudovirus. Nature of the series: Pseudovirus-based assay of anti-HIV-1 activity, R263K strain. To be noted: HEK-293T, 72 h. The protocol:
as §6, §7, §8

For series [11], the system named is HIV-1 integrase Y143R/Q148H pseudovirus. Briefly: Pseudovirus-based assay of anti-HIV-1 activity, Y143R/Q148H strain. To be noted: HEK-293T, 72 h. As for the experimental part:
as §6, §7, §8

The test system of series [12] is HIV-1 integrase G140S/Q148R pseudovirus. Briefly: Pseudovirus-based assay of anti-HIV-1 activity, G140S/Q148R strain. To be noted: HEK-293T, 72 h. As for the experimental part: as §6, §7, §8
Series [13] deals with HIV-1 integrase Q148R/N155H pseudovirus. Briefly: Pseudovirus-based assay of anti-HIV-1 activity, Q148R/N155H strain. To be noted: HEK-293T, 72 h. As for the experimental part:
as §6, §7, §8

Read-outs that look alike come from different tables or passages of the source.

The results in this text go back to patent publication US20250188091A1, “PYRIDONE COMPOUND HAVING INTEGRASE INHIBITORY ACTIVITY AND PHARMACEUTICAL USE THEREOF” (priority 2021, published 2025).

As a reminder, the CC50 is the concentration that lowers cell viability or growth by half. Read a low CC50 as greater toxicity to the cells.

For the molecule `Cc1cn([C@H]2C[C@H](N=[N+]=[N-])[C@@H](CO)O2)c(=O)[nH]c1=O` [AZT], the EC50 in [1] (MT-4 cells infected by HIV-1IIIB, 6 days, XTT, read-out: EC50) worked out at 2 nM; in [3] (read-out: hPBMC/HIV-1 EC50), 3.58 nM; in series [4] (read-out: hPBMC/HIV-1 EC50), 0.31 nM; in series [5] (read-out: hPBMC/HIV-1 EC50) it was 4.02 nM. In [1], the CC50/EC50 is listed as >250. Besides, the CC50 in [2] is > 500 nM. Also, the EC90 in series [3] (read-out: hPBMC/HIV-1 EC90) worked out at 75.5 nM; in series [4] (read-out: hPBMC/HIV-1 EC90), 38.6 nM; in series [5] (read-out: hPBMC/HIV-1 EC90), 62 nM.

As to `O=C(NCc1ccc(F)cc1F)c1cn2c(c(O)c1=O)C(=O)N1[C@@H](C3CC3)CO[C@@H]1C2` [Compound 1], the EC50 in series [1] (Human immunodeficiency virus 1, IIIB, MT4, 144 h) turned out to be 3.12 nM; in series [7], 3.3 nM; in series [8], 5.1 nM; in series [9], 15.9 nM; in series [10] it was 6.5 nM; in series [11], 21.3 nM. Also, the EC50 was 244 nM in series [12] and 611 nM in series [13]. Further, the CC50/EC50 in [1] is given as >32.1. Further, the CC50 at 6 days in series [6] is > 100 nM. The EC90 in series [7] is 29.1 nM; in series [8], 27.1 nM; in [9], 105 nM; in [10], 58.3 nM; in series [11], 193 nM; in [12], > 1000 nM. Besides, in series [13], the EC90 is > 1000 nM.

Regarding `Cc1nnc(C(=O)NC(C)(C)c2nc(C(=O)NCc3ccc(F)cc3)c(O)c(=O)n2C)o1` [Raltegravir, raltegravir], the EC50 is 5.5 nM in [7]; 8.1 nM in series [8]; 214 nM in series [9]; 7.1 nM in [10]; > 1000 nM in series [11]; > 1000 nM in series [12]. The EC50 in series [13] was > 1000 nM. The EC90 in series [7] is 60.7 nM; in series [8], 46.2 nM; in [9] it was > 1000 nM; in [10], 68 nM; in series [11] it was > 1000 nM; in series [12] it was > 1000 nM. Moreover, the EC90 in series [13] was > 1000 nM.
